Consider four compounds from article PMC7827406, “Structure–Activity Relationship (SAR) Study of Spautin-1 to Entail the Discovery of Novel NEK4 Inhibitors” (International Journal of Molecular Sciences, 2021).

Assay [1] addresses T1, EGFR (Homo sapiens, UniProt P00533). Put plainly: kinase panel (Eurofins), residual activity at […]. Format: biochemical.
Assay [2] has as its target T2, CLK4 (Homo sapiens, UniProt Q9HAZ1). The assay is described as follows: kinase panel (Eurofins), residual activity at […]. Format: biochemical.
Assay [3] has as its target T3, GRK7(h) (Homo sapiens, UniProt Q8WTQ7).
T3 sequence (Q8WTQ7 1-553): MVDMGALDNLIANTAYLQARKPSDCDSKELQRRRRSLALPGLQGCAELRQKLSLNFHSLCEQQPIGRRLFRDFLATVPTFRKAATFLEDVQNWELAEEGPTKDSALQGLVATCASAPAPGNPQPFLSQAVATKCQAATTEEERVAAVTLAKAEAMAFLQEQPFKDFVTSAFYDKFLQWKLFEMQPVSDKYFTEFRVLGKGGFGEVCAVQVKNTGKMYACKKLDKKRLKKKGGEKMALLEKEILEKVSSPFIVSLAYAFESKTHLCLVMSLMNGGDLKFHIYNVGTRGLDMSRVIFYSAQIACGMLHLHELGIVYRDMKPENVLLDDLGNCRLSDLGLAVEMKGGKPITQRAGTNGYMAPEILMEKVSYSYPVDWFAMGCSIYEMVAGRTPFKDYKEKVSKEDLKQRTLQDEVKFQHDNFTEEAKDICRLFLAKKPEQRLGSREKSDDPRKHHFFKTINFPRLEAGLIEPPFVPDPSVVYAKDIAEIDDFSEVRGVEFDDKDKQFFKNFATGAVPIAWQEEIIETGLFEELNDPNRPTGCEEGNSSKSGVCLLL
Put plainly: biochemical. On the set-up: Eurofins KinaseProfiler full panel at Km ATP, residual kinase activity (%) relative to DMSO. In outline:
(§1)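 Radiometric kinase activity assays were run with ATP at Km and compounds at 10 µM, and remaining activity (%) was reported. A separate competitive binding screen measured DNA-tagged kinase displaced from immobilized active-site ligands by qPCR, giving percent kinase still bound at 10 µM compound in DMSO.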

Assay [4] deals with T4, PI3 Kinase (p110a/p65a)(h) (Homo sapiens, UniProt P42336).
T4 construct: gene PIK3CA; with p65a
Put plainly: biochemical. On the set-up: Eurofins KinaseProfiler full panel at Km ATP, residual kinase activity (%) relative to DMSO. In outline: as §1

For assay [5], the target named is T5, PKBγ(h) (Homo sapiens, UniProt Q9Y243).
T5 construct: gene AKT3
The assay is described as follows: biochemical. On the set-up: Eurofins KinaseProfiler full panel at Km ATP, residual kinase activity (%) relative to DMSO. Put shortly: as §1

The target of assay [6] is STK32C(h) (Homo sapiens, UniProt Q86UX6). Put plainly: biochemical. On the set-up: Eurofins KinaseProfiler full panel at Km ATP, residual kinase activity (%) relative to DMSO. In outline:
as §1

Assay [7] deals with T6, ACTR2(h) (Homo sapiens, UniProt P27037).
T6 construct: gene ACVR2A
The assay is described as follows: biochemical. Details: Eurofins kinase panel, residual kinase activity (%) at 10 uM relative to DMSO. On the procedure: (§2) Eurofins performed a “Full KP Panel [Km ATP], KinaseProfile” which contains 429 radiometric kinase activity assays. The remaining kinase activity (%) was determined after treatment with the compounds at a concentration of 10 µM (Cfr. supporting information). Since we could not confirm the interaction between Spautin-1 analogues and USP13, a kinase screening was performed using a set of four compounds (Spautin-1 and three analogues) to discover off-targets and identify kinases that are potentially responsible for the reduction in cell viability observed in our screen (Table 2). The KINOMEscan from Eurofins was performed (see Table S1). This screen consists of a competitive binding assay in which the DNA-tagged kinase is incubated with one of the compounds in the presence of immobilized active site binding ligands. Binding of the compounds to the kinase hampers the binding of the kinase to the ligands and this inhibition was quantified by qPCR.

Assay [8] addresses T7, MAPK1(h) (Homo sapiens, UniProt P27361).
T7 construct: gene MAPK3
The assay is described as follows: biochemical. On the set-up: Eurofins kinase panel, residual kinase activity (%) at 10 uM relative to DMSO. On the procedure:
as §2

Assay [9] deals with T8, MAPK2(h) (Homo sapiens, UniProt P28482).
T8 construct: gene MAPK1
Put plainly: biochemical. On the set-up: Eurofins kinase panel, residual kinase activity (%) at 10 uM relative to DMSO. On the procedure: as §2

In assay [10] the target is T9, MAPK2(m) (Mus musculus, UniProt P63085).
T9 construct: gene Mapk1
The assay is described as follows: biochemical. Details: Eurofins kinase panel, residual kinase activity (%) at 10 uM relative to DMSO. The procedure:
as §2

For assay [11], the target named is T10, MLCK(h) (Homo sapiens, UniProt Q15746).
T10 construct: gene MYLK
The assay is described as follows: biochemical. On the set-up: Eurofins kinase panel, residual kinase activity (%) at 10 uM relative to DMSO. On the procedure: as §2

Assay [12] has as its target T11, NEK4 (Homo sapiens, UniProt P51957). Put plainly: kinase panel (Eurofins), residual activity at […]. In kind it is biochemical. To be noted: read-out: [drawing 3] / Residual Activity (%).
For assay [13], the target named is T2, CLK4. The assay is described as follows: biochemical. Details: Eurofins KinaseProfiler full panel at Km ATP, residual kinase activity (%) relative to DMSO. In outline:
as §1

The target in assay [14] is T1, EGFR. The assay is described as follows: biochemical. Details: Eurofins KinaseProfiler full panel at Km ATP, residual kinase activity (%) relative to DMSO. In outline:
as §1

Assay [15] has as its target T11, NEK4. The assay is described as follows: radiometric kinase assay (Eurofins), IC50. Format: biochemical.
The mark [16] stands for this setting: read-out: [drawing 1] / Residual Activity (%).
[17] abbreviates: read-out: Residual activity (%) Spautin-1 5aa.
Where [18] appears, read: read-out: Residual activity (%) Spautin-1.
[19] abbreviates: read-out: Residual activity (%) 5as.
Where [20] appears, read: read-out: Residual activity (%) 5at.
Setting [21] is: read-out: [drawing 2] / Residual Activity (%).
The mark [22] stands for this setting: read-out: Residual activity (%) 5ay.

pIC50: −log10 of the molar value. Read-outs that look alike come from different tables or passages of the source.

T6 sequence (P27037 whole entry): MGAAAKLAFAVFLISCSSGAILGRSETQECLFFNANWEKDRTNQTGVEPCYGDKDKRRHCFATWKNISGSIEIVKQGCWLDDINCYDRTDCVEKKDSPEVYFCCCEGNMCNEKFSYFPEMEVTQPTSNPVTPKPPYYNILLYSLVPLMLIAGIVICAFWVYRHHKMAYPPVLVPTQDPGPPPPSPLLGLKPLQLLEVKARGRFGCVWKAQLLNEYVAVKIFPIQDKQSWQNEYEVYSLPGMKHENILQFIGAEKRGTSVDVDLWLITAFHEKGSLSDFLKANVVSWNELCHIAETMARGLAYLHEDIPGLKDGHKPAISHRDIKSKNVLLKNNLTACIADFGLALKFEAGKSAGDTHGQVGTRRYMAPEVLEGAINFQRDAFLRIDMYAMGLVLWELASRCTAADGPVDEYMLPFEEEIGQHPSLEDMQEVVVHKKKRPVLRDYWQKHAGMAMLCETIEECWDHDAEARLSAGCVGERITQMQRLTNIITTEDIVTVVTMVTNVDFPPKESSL
T9 sequence (P63085 whole entry): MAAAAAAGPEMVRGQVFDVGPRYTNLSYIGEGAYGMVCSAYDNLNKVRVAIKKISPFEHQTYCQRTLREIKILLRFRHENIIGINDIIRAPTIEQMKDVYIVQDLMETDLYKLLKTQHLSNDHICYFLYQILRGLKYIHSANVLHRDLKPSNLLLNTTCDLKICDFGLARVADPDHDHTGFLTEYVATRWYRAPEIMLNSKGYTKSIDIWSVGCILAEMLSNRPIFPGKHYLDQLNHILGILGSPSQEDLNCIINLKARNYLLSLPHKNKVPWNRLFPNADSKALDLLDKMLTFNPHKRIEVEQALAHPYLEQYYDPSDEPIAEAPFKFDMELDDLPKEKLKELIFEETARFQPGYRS
T4 sequence (P42336 whole entry): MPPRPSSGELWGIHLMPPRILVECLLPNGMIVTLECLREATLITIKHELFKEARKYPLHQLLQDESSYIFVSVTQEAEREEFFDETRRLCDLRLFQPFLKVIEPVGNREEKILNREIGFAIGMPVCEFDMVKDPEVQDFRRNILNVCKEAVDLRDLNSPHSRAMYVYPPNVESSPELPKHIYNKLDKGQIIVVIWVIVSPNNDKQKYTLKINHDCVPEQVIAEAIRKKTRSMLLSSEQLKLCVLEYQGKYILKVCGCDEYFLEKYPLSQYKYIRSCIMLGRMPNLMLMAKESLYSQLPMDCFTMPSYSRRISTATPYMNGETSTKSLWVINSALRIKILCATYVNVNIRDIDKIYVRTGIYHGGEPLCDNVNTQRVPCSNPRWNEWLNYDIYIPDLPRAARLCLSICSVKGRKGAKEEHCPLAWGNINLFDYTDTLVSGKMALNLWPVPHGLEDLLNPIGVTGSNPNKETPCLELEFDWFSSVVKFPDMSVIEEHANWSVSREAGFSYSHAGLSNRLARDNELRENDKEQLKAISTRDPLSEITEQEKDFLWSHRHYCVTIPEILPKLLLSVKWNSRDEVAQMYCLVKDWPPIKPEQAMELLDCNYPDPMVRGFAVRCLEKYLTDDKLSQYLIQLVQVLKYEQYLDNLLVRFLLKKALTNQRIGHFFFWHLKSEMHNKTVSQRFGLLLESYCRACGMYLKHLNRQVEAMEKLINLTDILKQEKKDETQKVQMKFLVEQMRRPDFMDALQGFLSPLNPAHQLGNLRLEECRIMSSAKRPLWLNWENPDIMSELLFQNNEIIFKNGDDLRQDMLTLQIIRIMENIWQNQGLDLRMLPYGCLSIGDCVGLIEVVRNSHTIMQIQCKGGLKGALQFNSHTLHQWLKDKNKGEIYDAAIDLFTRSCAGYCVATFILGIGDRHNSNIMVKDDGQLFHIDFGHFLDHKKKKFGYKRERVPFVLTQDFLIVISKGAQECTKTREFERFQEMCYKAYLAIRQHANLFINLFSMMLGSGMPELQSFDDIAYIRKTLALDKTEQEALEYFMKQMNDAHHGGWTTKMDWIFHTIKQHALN
T4 sequence (P27986 whole entry partner): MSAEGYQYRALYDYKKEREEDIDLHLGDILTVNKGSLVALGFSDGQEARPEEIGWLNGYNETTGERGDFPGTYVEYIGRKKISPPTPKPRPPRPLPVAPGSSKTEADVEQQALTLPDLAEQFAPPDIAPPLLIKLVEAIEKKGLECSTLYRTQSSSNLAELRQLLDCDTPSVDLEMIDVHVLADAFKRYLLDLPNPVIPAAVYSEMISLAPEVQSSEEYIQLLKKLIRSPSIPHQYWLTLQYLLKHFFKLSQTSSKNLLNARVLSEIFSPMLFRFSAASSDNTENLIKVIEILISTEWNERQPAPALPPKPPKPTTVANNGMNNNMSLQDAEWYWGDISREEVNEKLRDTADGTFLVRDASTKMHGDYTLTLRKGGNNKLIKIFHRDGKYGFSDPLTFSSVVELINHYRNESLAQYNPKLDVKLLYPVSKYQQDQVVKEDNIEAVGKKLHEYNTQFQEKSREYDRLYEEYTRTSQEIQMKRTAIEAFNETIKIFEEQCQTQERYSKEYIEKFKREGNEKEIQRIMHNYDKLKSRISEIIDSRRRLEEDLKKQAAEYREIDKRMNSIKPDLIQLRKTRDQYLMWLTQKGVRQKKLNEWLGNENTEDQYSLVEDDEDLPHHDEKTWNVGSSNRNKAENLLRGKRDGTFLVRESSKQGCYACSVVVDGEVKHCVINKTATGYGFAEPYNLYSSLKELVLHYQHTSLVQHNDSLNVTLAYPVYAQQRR
T1 sequence (P00533 25-1210): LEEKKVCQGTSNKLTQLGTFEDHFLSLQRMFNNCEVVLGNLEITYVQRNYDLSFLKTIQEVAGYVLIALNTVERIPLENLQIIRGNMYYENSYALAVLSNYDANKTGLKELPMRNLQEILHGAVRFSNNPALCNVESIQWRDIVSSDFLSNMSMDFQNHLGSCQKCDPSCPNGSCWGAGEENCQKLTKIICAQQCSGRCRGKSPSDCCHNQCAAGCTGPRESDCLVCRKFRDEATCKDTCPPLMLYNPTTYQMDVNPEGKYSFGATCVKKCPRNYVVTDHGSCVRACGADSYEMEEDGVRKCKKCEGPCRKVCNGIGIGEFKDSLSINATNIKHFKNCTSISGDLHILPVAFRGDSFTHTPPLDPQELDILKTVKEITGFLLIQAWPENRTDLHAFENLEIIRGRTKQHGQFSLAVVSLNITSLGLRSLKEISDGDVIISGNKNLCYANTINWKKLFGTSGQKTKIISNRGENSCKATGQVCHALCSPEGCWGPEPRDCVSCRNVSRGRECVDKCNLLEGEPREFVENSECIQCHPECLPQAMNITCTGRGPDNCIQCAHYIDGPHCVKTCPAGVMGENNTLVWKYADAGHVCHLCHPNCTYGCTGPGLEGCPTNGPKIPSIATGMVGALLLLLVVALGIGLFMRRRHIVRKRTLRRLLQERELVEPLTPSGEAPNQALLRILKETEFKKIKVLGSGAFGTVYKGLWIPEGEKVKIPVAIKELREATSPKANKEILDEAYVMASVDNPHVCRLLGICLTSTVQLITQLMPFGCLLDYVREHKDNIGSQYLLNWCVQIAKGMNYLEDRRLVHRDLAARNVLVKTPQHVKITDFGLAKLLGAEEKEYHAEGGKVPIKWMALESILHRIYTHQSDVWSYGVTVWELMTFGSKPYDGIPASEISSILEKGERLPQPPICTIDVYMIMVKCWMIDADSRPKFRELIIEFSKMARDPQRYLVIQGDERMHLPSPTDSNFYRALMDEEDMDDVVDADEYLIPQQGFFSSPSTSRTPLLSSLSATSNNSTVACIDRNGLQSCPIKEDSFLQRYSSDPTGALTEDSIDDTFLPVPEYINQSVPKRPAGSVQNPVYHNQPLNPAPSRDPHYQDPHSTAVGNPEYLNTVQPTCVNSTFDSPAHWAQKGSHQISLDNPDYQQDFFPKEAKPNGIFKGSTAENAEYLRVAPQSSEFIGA
T2 sequence (Q9HAZ1 whole entry): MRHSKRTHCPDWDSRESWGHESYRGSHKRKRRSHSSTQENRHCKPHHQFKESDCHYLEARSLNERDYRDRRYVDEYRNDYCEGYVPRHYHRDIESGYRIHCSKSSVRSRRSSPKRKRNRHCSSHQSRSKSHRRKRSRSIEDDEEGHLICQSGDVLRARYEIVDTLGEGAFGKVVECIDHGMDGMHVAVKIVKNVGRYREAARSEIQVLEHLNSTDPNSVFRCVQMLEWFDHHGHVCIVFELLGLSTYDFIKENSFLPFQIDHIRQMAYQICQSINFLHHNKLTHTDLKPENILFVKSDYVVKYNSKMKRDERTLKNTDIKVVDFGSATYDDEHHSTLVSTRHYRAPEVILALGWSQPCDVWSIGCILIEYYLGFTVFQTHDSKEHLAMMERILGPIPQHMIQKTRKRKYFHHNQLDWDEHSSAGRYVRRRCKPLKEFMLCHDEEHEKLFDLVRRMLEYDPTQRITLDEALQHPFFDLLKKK
Chain of STK32C(h) (Q86UX6 whole entry): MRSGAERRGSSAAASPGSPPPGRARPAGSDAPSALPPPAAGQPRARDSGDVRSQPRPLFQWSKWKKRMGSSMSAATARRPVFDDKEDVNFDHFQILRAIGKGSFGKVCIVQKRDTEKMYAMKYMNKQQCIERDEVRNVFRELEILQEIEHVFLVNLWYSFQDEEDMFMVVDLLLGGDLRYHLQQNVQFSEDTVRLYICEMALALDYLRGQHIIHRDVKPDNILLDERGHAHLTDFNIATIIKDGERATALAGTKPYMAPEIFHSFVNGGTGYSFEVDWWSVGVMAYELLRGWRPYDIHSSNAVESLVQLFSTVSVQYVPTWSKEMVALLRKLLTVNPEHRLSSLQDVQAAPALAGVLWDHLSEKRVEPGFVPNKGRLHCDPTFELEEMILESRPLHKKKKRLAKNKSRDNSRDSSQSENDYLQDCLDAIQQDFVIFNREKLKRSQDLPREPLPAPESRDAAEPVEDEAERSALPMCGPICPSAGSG

For the compound `Fc1ccc(CNc2ncnc3ccc(F)cc23)cc1` [5aa, 6-Fluoro-N-(4-fluorobenzyl)-4-Quinazolinamine], the remaining activity at 10 µM in assay [1] (setting [16]) was 27%; in assay [2] (setting [16]), 19%; in assay [3] (setting [17]) it was 87%; in [4] (setting [17]), 98%; in [5] (setting [17]), 101%; in assay [6] (setting [17]), 106%. For the same compound, the remaining activity at 10 µM in [7] (setting [18]) amounted to 92%; in assay [8] (setting [18]), 96%; in [9] (setting [18]) it was 96%; in assay [10] (setting [18]), 104%; in assay [11] (setting [18]), 83%.

With `Fc1ccc(CCNc2ncnc3ccc(F)cc23)cc1` [5as, 6-Fluoro-N-[2-(4-Fluorophenyl)Ethyl]-4-Quinazolinamine], the remaining activity at 10 µM in [12] worked out at 27%; in assay [13] (setting [19]), 12%; in [14] (setting [19]), 46%; in [3] (setting [19]), 95%; in assay [4] (setting [19]) it was 95%; in assay [5] (setting [19]), 102%. Also, the remaining activity at 10 µM came to 95% in assay [6] (setting [19]); 83% in assay [7] (setting [19]); 93% in assay [8] (setting [19]); 87% in [9] (setting [19]); 105% in [10] (setting [19]); 88% in assay [11] (setting [19]).

For `Fc1ccc2ncnc(NCCc3ccc(Cl)cc3)c2c1` [5at, N-[2-(4-Chlorophenyl)Ethyl]-6-Fluoro-4-Quinazolinamine], in [15], the pIC50 is around 6.00. Also, the remaining activity at 10 µM was 16% in [13] (setting [20]); 72% in assay [14] (setting [20]); 93% in assay [3] (setting [20]); 94% in assay [4] (setting [20]); 105% in assay [5] (setting [20]); 106% in [6] (setting [20]). Besides, the remaining activity at 10 µM is 97% in [7] (setting [20]); 114% in assay [8] (setting [20]); 83% in assay [9] (setting [20]); 91% in [10] (setting [20]); 86% in assay [11] (setting [20]).

Consider `COc1ccc2ncnc(Nc3cccc(F)c3)c2c1` [5ay, N-(3-Fluorophenyl)-6-Methoxy-4-Quinazolinamine], for which the remaining activity at 10 µM in [1] (setting [21]) was 1%; in assay [2] (setting [21]), 6%; in [3] (setting [22]), 91%; in assay [4] (setting [22]) it was 91%; in assay [5] (setting [22]) it was 89%; in assay [6] (setting [22]), 102%. The remaining activity at 10 µM in assay [7] (setting [22]) came to 85%; in assay [8] (setting [22]) it was 84%; in [9] (setting [22]) it was 100%; in assay [10] (setting [22]), 118%; in [11] (setting [22]), 69%.

By pIC50 is commonly meant the IC50 on a negative log10 scale, so that one unit is a factor of ten.
